Measurements taken from patent US20170189376A1, “BUTYROYLOXYMETHYL DIETHYL PHOSPHATE COMPOUNDS AND USES THEREOF” (MOR RESEARCH APPLICATIONS LTD., priority 2016, published 2017).
Read-outs that look alike come from different tables or passages of the source.

Key:
MyLa cells [1] = assay: cells; type: cell-based, human; conditions: trypan blue, column group printed 'AN-7', MyLa
Hut78 cells [2] = type: cell-based, homo sapiens; conditions: trypan blue; for IC50: column group printed 'SAHA'
SPBL = assay: FACS annexin V/PI apoptosis ex vivo, PBL of SS patients; type: cell-based, human; conditions: PBL from 2 SS patients, SAHA 4 μM or AN-7 200 μM, 48 h
From the text: The cells were then stained with annexin V and PI and analysed by FACS.

[3] = tested on: caspase 3, PARP, P21 and Bax in MF/SS cell lines; assay: Western blot of pro-apoptotic proteins in MF/SS cell lines; type: cell-based, human; conditions: MyLa and Hut78, SAHA 10 μM or AN-7 300 μM
From the text: However, there was a stronger signal in response to SAHA.

HDAC1 = assay: Western blot of HDAC1 protein expression in MF/SS cell lines; type: cell-based, human; conditions: MyLa and Hut78, SAHA 10 μM or AN-7 300 μM
[4] = tested on: p-KAP1, γH2AX in MyLa cells; assay: Western blot of p-KAP1 and γH2AX, MyLa cells; type: cell-based, human; conditions: 1 mM AN-7 2 h, 1 μM Dox 1 h, or AN-7 1 h followed with Dox 1 h
Procedure: (§1) Cell fraction—3×10^6cells were suspended in 100 μl hypotonic buffer (HEPES 10 mM, KCl 5 mM, MgCl2 1.5 mM, DTT 1 mM, NP-40 1%), incubated for 15 min in ice, centrifuged and the supernatant fraction was subjected to western blot of pKAP1 and actin. The sediment was washed once with hypotonic buffer followed by suspension in 100 μl of hypertonic buffer (HEPES 10 mM, NaCl 500 mM, MgCl2 1.5 mM, DTT 1 mM, NP-40 1%), incubated for 15 min in ice, centrifuged, supernatant was removed and the sediment was boiled, vortexed for 10 min at 95° C. with sample buffer ×3 for 3 times and subjected to western blot of γH2AX.
(§2) Whole cells extract—Cells were suspended in lysis buffer (Tris-HCl 50 mM, NaCl 150 mM, NP-40 0.5%), incubated for lh on ice, centrifuged and the supernatant was collected. Protease and Phosphatase inhibitors were added to all buffers at a 1:100 dilutions. […] Bands were visualized by Odyssey Infrared Imaging System and the bands intense were normalized to actin.
(§3) Next, cells were fractionated and fraction lysate were subjected to western blot of phosphorylated KAP1 (p-KAP1), γH2AX and actin.

[5] = tested on: p-KAP1, γH2AX in Hut78 cells; assay: Western blot of p-KAP1 and γH2AX, Hut78 cells; type: cell-based, homo sapiens; conditions: 0.5 mM AN-7 2 h, 0.5 μM Dox 1 h, or AN-7 1 h followed with Dox 1 h
Procedure: as §1, §2, §3

[6] = tested on: NBS1, Rad51, Mre11, DNA-PK, Ku70 in MyLa cells; assay: Western blot of DSB repair proteins, MyLa cells; type: cell-based, human; conditions: 24 and 48 h post treatment
Procedure: as §2
(§4) To address whether AN-7 interfere in DSBs repair by regulating the expression of DSBs repair proteins, Immunoblot was applied for those proteins. MyLa and Hut78 cells were treated as previously described and subjected to western blot of DSBs repair proteins.

[7] = tested on: NBS1, Rad51, Mre11, DNA-PK, Ku70 in Hut78 cells; assay: Western blot of DSB repair proteins, Hut78 cells; type: cell-based, homo sapiens; conditions: Hut78, 18 and 24 h post treatment
Procedure: as §2, §4

U2OS GFP-reporter cells = assay: HR activity assay, U2OS GFP-reporter cells; type: cell-based; conditions: 1 mM AN-7 for 48 h
Procedure: U2OS cells with the linearized HRsub reporter (Puget et al. DNA Repair 4 (2005) 149-161) were transfected with: SceI-expression vector pCBASce; pCBA vector without Sce-I; and GFP control vector, each one separately with FuGENE 6 transfection reagent (Promega). 24 h later 2×10̂5 cells/ml were seeded in 35 mm plates and 6 h later were treated with 1 mM AN-7 for 48 hr. Cells were washed with PBS then harvested with Trypsin solution, neutralized with PBS+10% FBS, centrifuged in 1200 rpm for 10 min, suspended with PBS+10% FBS and GFP-positive cells were quantified by flow cytometry analysis. Cells excitation was done with 488nm laser; the reading of FL1 values was done in 530 nm. Percent of cells with repaired DSB induced by Sce-I via HR are presented as percent of GFP positive cells which are calculated as follow: (%GFP of cells expressing Sce-I pCBASce)−(%GFP of cells expressing empty pCBASce)/(%GFP of cells expressing GFP control vector).
The role of AN-7 in suppressing directly the repair of DSBs, was verified. To this end, one of the machinery for repairing DSBs, the HR repair machinery, was tested. […] The U2OS-GFP cells were transfected with I-SceI plasmid for 24 hours, treated then with AN-7 for another 48 h and then analyzed for GFP expression in FACS analysis. […]

MyLa cells [8] = assay: MTT-based viability assay, MyLa cells
Procedure: (§5) MyLa cells (10^4), Hut78 cells (5×10^3), SPBL and NPBL (10^5) were seeded in triplicate in 96-well plates. The PBL were activated with PHA 40 μg/10^6 cell for 24 h before the experiment. […] The cells were then placed in a humidified incubator for 72 h. […] The MTT reagent was added to a final concentration of 0.5 mg/mL, and the cells were incubated for an additional 4 h. Thereafter, 0.1N HCl in isopropanol was added, and cell viability was determined using an ELISA reader (PowerWaveX, BioTek, Winooski, Vt., USA) at a 570 nm wavelength with background subtraction at 630-690 nM.
(§6) Viability and apoptosis curves were based on the averages of at least 3 independent experiments. The standard error (SE) was calculated for each group as follows: SE=standard deviation/√n, where n is number of values in the group. […] Significant differences in selectivity among groups were analyzed by comparing the IC50 values using two-tailed unpaired t-test using Excel or by comparing the differential effects for all the dose response titrations using ANOVA with repeated measures.

Hut78 cells [9] = assay: MTT-based viability assay, Hut78 cells
Procedure: as §5, §6

[10] = tested on: Sezary syndrome Peripheral blood lymphocytes SPBL; assay: MTT-based viability assay, Sezary PBL (SPBL); conditions: for IC50: Sezary PBL
Procedure: (§7) Peripheral blood was diluted 1:3 in sterile phosphate-buffered saline (PBS). Lymphoprep was added in the same blood volume with a Pasteur pipette, and the sample was centrifuged. PBL were collected from the white median interphase, rinsed twice with PBS, and suspended in RPMI medium with 10 mM HEPES to 2×10^6 cells/mL.
as §5, §6
(§8) NPBL were treated at same molar ratio as SPBL.

NPBL = assay: MTT-based viability assay, normal PBL (NPBL); conditions: for IC50: Normal PBL
Procedure: as §7, §5, §6, §8

Acetylated H3 = assay: Western blot of acetylated H3 in nuclear lysate of MF/SS cell lines; conditions: MyLa and Hut78, SAHA 10 μM or AN-7 300 μM
Procedure: Cells (5×10^6) were suspended in 300 μL of cytoplasmic buffer (HEPES 10 mM, KCl 10 mM, EDTA 1 mM, EGTA 1 mM, DTT 1 mM). After 20 min of incubation on ice, the mixture was passed 5 times through a 25-G syringe and then centrifuged briefly to obtain the cytoplasmic supernatant.
The nuclear pellet was suspended in 40-60 μL of nuclear buffer (cytoplasmic buffer+10% glycerol), incubated with shaking at 4° C. for 15 min, and centrifuged. The supernatant was collected as a nuclear fraction.
Cell extracts were separated by SDS-polyacrylamide gel electrophoresis (SDS-PAGE), transferred to a nitrocellulose membrane, and subjected to immunoblot with primary and secondary antibodies, as listed in table 1.

MyLa cells [11] = assay: FACS analysis with annexin V and PI staining (apoptosis), MyLa cells
Procedure: (§9) The cells (2.5×10^6 cells/mL) were washed in PBS and binding buffer and were resuspended in binding buffer, and of fluorescein isothiocyanate-conjugated annexin V (5 μL) was added to a 100 μL cell suspension for 10-15 min. Incubation was performed at room temperature under light-protected conditions. The cells were then washed in binding buffer and were resuspended in the binding buffer and propidium iodide (PI) (5 μL) was added. The samples were analyzed by flow cytometry (FACS Calibur 4.1.6, Becton Dickinson): fluorescein-labeled annexin V at a 530 nm wavelength, and PI at a 585 nm wavelength. The percentage of cells was calculated by their distribution in a fluorescence dot plot generated with FCS Express 4 software (De Novo Software, Los Angeles, Calif., USA). Early (annexin V-positive) and late (annexin V+PI-positive) apoptotic cells were summed to yield the total number of apoptotic cells.

Hut78 cells [12] = assay: FACS analysis with annexin V and PI staining (apoptosis), Hut78 cells
Procedure: as §9

[13] = long exposure 24 h, read-out: IC50 Long exposure
[14] = read-out: IC50 single treatment (HDACI), MTT 72 h, Table 4

## CCCC(=O)OCOP(=O)(OCC)OCC [AN-7, Butyroyloxymethyl diethyl phosphate]
MyLa cells [1]; 4 h then washout and 44 h, read-out: IC50 Short exposure
  IC50: 141 ± 9.8 µM
MyLa cells [1]; [13]
  IC50: 159 ± 34.8 µM
Hut78 cells [2]
  IC50 short exposure/IC50 long exposure: 1.3
Hut78 cells [2]; 4 h then washout and 20 h, read-out: IC50 Short exposure
  IC50: 88 ± 4.6 µM
Hut78 cells [2]; [13]
  IC50: 67 ± 2.5 µM
SPBL
  apoptosis induction in SPBL ex vivo: directed more SPBL cells into apoptotic death than SAHA
[3]
  expression of pro-apoptotic proteins (western blot): cleavage of caspase 3 and poly ADP-ribose polymerase (PARP) and the production of P21 and Bax
HDAC1
  HDAC1 expression level: downregulated
[4]
  induction and clearance of p-KAP1: did not affect the expression of p-KAP1 and γH2AX
  induction and clearance of γH2AX: did not affect the expression of p-KAP1 and γH2AX
[5]
  induction and persistence of p-KAP1 and γH2AX: did not affect the expression of p-KAP1 and γH2AX
[6]
  expression of NBS1, Mre11, Rad51 and DNA-PK: did not affect the expression of DSB repair proteins
[7]
  expression of NBS1 and DNA-PK: did not affect the expression of DSB repair proteins
U2OS GFP-reporter cells
  proportion of cells expressing GFP (frequency of HR repair of I-SceI-induced DSBs): significantly reduce
MyLa cells [8]; MyLa cells, MTT, 72 h
  IC50: 120 ± 5.3 µM
MyLa cells [8]; MyLa vs NPBL, ANOVA with repeated measures
  selectivity vs NPBL by dose-response titration: significantly selective
MyLa cells [8]; SI=IC50 NPBL/IC50 MyLa
  Selectivity index (SI): 1.7
MyLa cells [8]; read-out: IC50 single treatment (HDACI), MyLa, MTT 72 h, Table 4
  IC50: 81.7 ± 4.4 µM
Hut78 cells [9]; Hut78 cells, MTT, 72 h
  IC50: 59 ± 4.3 µM
Hut78 cells [9]; Hut78 vs NPBL, ANOVA with repeated measures
  selectivity vs NPBL by dose-response titration: significantly selective
Hut78 cells [9]; SI=IC50 NPBL/IC50 Hut78
  Selectivity index (SI): 3.4
Hut78 cells [9]; read-out: IC50 single treatment (HDACI), Hut78, MTT 72 h, Table 4
  IC50: 59 ± 4.3 µM
[10]; SI=IC50 NPBL/IC50 Sezary PBL
  Selectivity index (SI): 3.56
[10]; SPBL vs NPBL, by IC50 values
  selectivity of induced death vs NPBL: selective death
[10]; MTT, 72 h
  IC50: 128 µM
[10]; high doses, MTT 72 h
  lethality of high doses to SPBL: more lethal to SPBL than high doses of SAHA
[10]; [14]
  IC50: 128 ± 5.2 µM
NPBL; MTT, 72 h
  IC50: 200 ± 2.8 µM
NPBL; high doses lethal to Hut78 and MyLa cells
  NPBL survival at high doses: 50%
NPBL; [14]
  IC50: 191 ± 26.1 µM
Acetylated H3
  expression of acetylated H3: induced
MyLa cells [11]; SAHA 10 μM or AN-7 300 μM
  apoptosis: about 60%
MyLa cells [11]; annexin V + PI
  apoptosis after short exposure compared to long exposure (fold less): no significant difference
Hut78 cells [12]; Hut78, annexin V + PI
  apoptosis after short exposure compared to long exposure (fold less): no significant difference
Hut78 cells [12]; Hut78, SAHA 10 μM or AN-7 300 μM
  apoptosis: about 60%
